{
  "source": "patent US7012060B1",
  "about": "“TNF receptor and steroid hormone in a combined therapy” (priority 1995, dated 2006)",
  "key": {"herpes virus type 2": {"test_system": "herpes virus type 2", "details": "cited from earlier work"}, "West Nile virus": {"test_system": "West Nile virus", "details": "cited from earlier work"}, "[1]": {"test_system": "systemic lupus erythematosus", "details": "mouse model; cited from earlier work"}, "[2]": {"test_system": "septic shock induced by LPS + D-Galactosamine, in mice", "assay": "LPS+D-Galactosamine-induced septic shock model", "assay_type": "in vivo, SPF female BALB/c inbred mice", "procedure": "The experiments were carried out in vivo on mice. The septic shock was induced by an i.p. administration of a mixture of LPS (0.1 μg/mouse) and D-Galactosamine (18 mg/mouse).\nThe treatment schedule for r-hTBP-1 based on repeated administrations (the total dose was divided into 4 administrations given at time 0 and […] and 24 hours after), was adopted. CHO r-hTBP-1 was tested, alone or in combination with DHEA, at dose levels of 62.5 and 125 μg/mouse (total dose).\nDHEA was tested both in a single administration injected i.p. one hour before and contemporaneously to the septic shock-inducing agent at doses encompassed between 100 and 2.000 μg/mouse and in repeated treatment with the total dose (250 μg/mouse) divided into 4 injections given within 24 hours.\nThe above treatment schedules of DHEA (doses from 250 to 1,500 μl g/mouse) were followed also in combination with r-hTBP-1 which was tested at the total dose varying from 62.5 to 125 μg/mouse (divided into 4 administrations).\nSPF female BALB/c inbred mice, 6–8 weeks (about 18–20 g b.w.), from Charles River were used throughout the whole study after an acclimatisation period of at least 7 days.\nUnless otherwise specified, in all the experiments the mice were randomly divided into groups of 10 animals each.\nBoth substances were dissolved in saline. The mixture of LPS (0.1 μg/mouse) and D-Galactosamine (18 mg/mouse) was prepared by mixing equal volumes of these substances. The mixture was subsequently injected to animals by the i.p. route. This dose was selected under precious experiments as that inducing around 80% mortality calculated as the number of dead vs. total number of mice for each croup. The lethality was monitored after 24, 48, 72 and 96 hours and at day 7 post-treatment.\nThe drug was diluted in saline and injected by repeated administrations, i.e. i.v. immediately before the inoculum of LPS plus D-Galactosamine and s.c. 3, 6 and 24 hours later.\nThe effects of DHEA, alone or in combination with r-hTBP-1, were assayed after single i.p. administrations at different times in respect to LPS+D-Galactosamine injection; in particular, it was administered 1 hour before and contemporaneously to the septic shock-inducing agent.\nA repeated treatment schedule was also investigated in which DHEA was administered at time 0 (septic shock induction) and 3, 6 and 24 hours later. DHEA was initially vehicled in a mixture of 2.5% alcohol and 10% rabbit serum in saline. To improve the solubility and standardise the preparation, the steroid was successively dispersed in a mixture of 2.5% alcohol and 10% phospholipid emulsion in saline.\nThe primary end point was the survival rate at 48 hours after induction of septic shock. The comparison of the effects of each treatment group vs. controls and among treatment groups was effected by Fisher's exact test, one-tailed. The same comparison was also performed at the other time points. The results in each treatment group were expressed as percent survival.\nIn all the experiments, percent survival values were calculated using the survival Tables for the follow up studies (Armitage P. Cap. XIV. Tavole di sopravvivenza in Statistica Medica, Feltrinelli, Milano). The χ^2-test was applied to each observation time by comparing the DHEA+r-hTBP-1 groups to the other groups."}},
  "note": "Marks after values point to notes of the source that are not given here.",
  "data": [
    {"smiles": "C[C@]12CC[C@H](O)CC1=CC[C@@H]1[C@@H]2CC[C@]2(C)C(=O)CC[C@@H]12", "note": "[DHEA, Dehydroepiandrosterone]", "values": [
      {"measurement": "systemic resistance against lethal viral infections", "setting": "herpes virus type 2", "value": "regulates the systemic resistance"},
      {"measurement": "systemic resistance against lethal viral infections", "setting": "West Nile virus", "value": "regulates the systemic resistance"},
      {"measurement": "development of systemic lupus erythematosus", "setting": "[1]", "value": "prevent the development"},
      {"measurement": "protection", "setting": "[2]; DHEA 1.000 μg contemporaneously with LPS+D-Gal vs same dose 1 hour before", "value": "higher protection"},
      {"measurement": "survival rate", "setting": "[2]; DHEA 1.500 μg/mouse alone, 1 hour before", "value": 40, "unit": "%"},
      {"measurement": "protective effects", "setting": "[2]; DHEA 2.000 μg/mouse, 1 hour before LPS+D-Galactosamine, all time points", "value": "complete protection"},
      {"measurement": "% cumulative survival", "setting": "[2]; DHEA 100 μg/mouse i.p. 1 hour before LPS + D-Gal, saline 10% rabbit serum, 24 hrs, 1st exp", "value": 20, "unit": "%"},
      {"measurement": "% cumulative survival", "setting": "[2]; DHEA 100 μg/mouse i.p. 1 hour before LPS + D-Gal, saline 10% rabbit serum, 48 hrs, 1st exp", "value": 20, "unit": "%"},
      {"measurement": "% cumulative survival", "setting": "[2]; DHEA 100 μg/mouse i.p. 1 hour before LPS + D-Gal, saline 10% rabbit serum, 72 hrs, 1st exp", "value": 20, "unit": "%"},
      {"measurement": "% cumulative survival", "setting": "[2]; DHEA 100 μg/mouse i.p. 1 hour before LPS + D-Gal, saline 10% rabbit serum, 96 hrs, 1st exp", "value": 20, "unit": "%"},
      {"measurement": "protection (survival)", "setting": "[2]; DHEA 250 μg/mouse alone at time 0, rabbit serum vehicle", "value": 30, "unit": "%"},
      {"measurement": "survival rate", "setting": "[2]; DHEA 250 μg/mouse divided into 4 inocula at 0, 3, 6 and 24 hours (group E), 48 hours", "value": 40, "unit": "%"},
      {"measurement": "% cumulative survival", "setting": "[2]; DHEA 250 μg/mouse i.p. at time 0, saline 10% rabbit serum, 24 hrs, 2nd exp.", "value": 20, "unit": "%"},
      {"measurement": "% cumulative survival", "setting": "[2]; DHEA 250 μg/mouse i.p. at time 0, saline 10% rabbit serum, 48 hrs, 2nd exp.", "value": 20, "unit": "%"},
      {"measurement": "% cumulative survival", "setting": "[2]; DHEA 250 μg/mouse i.p. at time 0, saline 10% rabbit serum, 72 hrs, 2nd exp.", "value": 20, "unit": "%"},
      {"measurement": "% cumulative survival", "setting": "[2]; DHEA 250 μg/mouse i.p. at time 0, saline 10% rabbit serum, 96 hrs, 2nd exp.", "value": 20, "unit": "%"},
      {"measurement": "survival rate", "setting": "[2]; DHEA 250 μg/mouse single injection (group D), 48 hours", "value": 30, "unit": "%"},
      {"measurement": "% cumulative survival", "setting": "[2]; DHEA 500 μg/mouse i.p. 1 hour before LPS + D-Gal, saline 10% rabbit serum, 24 hrs, 1st exp", "value": 10, "unit": "%"},
      {"measurement": "% cumulative survival", "setting": "[2]; DHEA 500 μg/mouse i.p. 1 hour before LPS + D-Gal, saline 10% rabbit serum, 48 hrs, 1st exp", "value": 10, "unit": "%"},
      {"measurement": "% cumulative survival", "setting": "[2]; DHEA 500 μg/mouse i.p. 1 hour before LPS + D-Gal, saline 10% rabbit serum, 72 hrs, 1st exp", "value": 10, "unit": "%"},
      {"measurement": "% cumulative survival", "setting": "[2]; DHEA 500 μg/mouse i.p. 1 hour before LPS + D-Gal, saline 10% rabbit serum, 96 hrs, 1st exp", "value": 10, "unit": "%"},
      {"measurement": "% cumulative survival", "setting": "[2]; DHEA 500 μg/mouse i.p. at time 0, saline 10% rabbit serum, 24 hrs, 1st exp.", "value": 50, "unit": "%"},
      {"measurement": "% cumulative survival", "setting": "[2]; DHEA 500 μg/mouse i.p. at time 0, saline 10% rabbit serum, 24 hrs, 2nd exp.", "value": 30, "unit": "%"},
      {"measurement": "% cumulative survival", "setting": "[2]; DHEA 500 μg/mouse i.p. at time 0, saline 10% rabbit serum, 48 hrs, 1st exp.", "value": 40, "unit": "%"},
      {"measurement": "% cumulative survival", "setting": "[2]; DHEA 500 μg/mouse i.p. at time 0, saline 10% rabbit serum, 48 hrs, 2nd exp.", "value": 30, "unit": "%"},
      {"measurement": "% cumulative survival", "setting": "[2]; DHEA 500 μg/mouse i.p. at time 0, saline 10% rabbit serum, 72 hrs, 1st exp.", "value": 30, "unit": "%"},
      {"measurement": "% cumulative survival", "setting": "[2]; DHEA 500 μg/mouse i.p. at time 0, saline 10% rabbit serum, 72 hrs, 2nd exp.", "value": 30, "unit": "%"},
      {"measurement": "% cumulative survival", "setting": "[2]; DHEA 500 μg/mouse i.p. at time 0, saline 10% rabbit serum, 96 hrs, 1st exp.", "value": 30, "unit": "%"},
      {"measurement": "% cumulative survival", "setting": "[2]; DHEA 500 μg/mouse i.p. at time 0, saline 10% rabbit serum, 96 hrs, 2nd exp.", "value": 30, "unit": "%"},
      {"measurement": "% cumulative survival", "setting": "[2]; DHEA 750 μg/mouse i.p. at time 0, saline 10% rabbit serum, 24 hrs, 1st exp.", "value": 40, "unit": "%"},
      {"measurement": "% cumulative survival", "setting": "[2]; DHEA 750 μg/mouse i.p. at time 0, saline 10% rabbit serum, 24 hrs, 2nd exp.", "value": 50, "unit": "%"},
      {"measurement": "% cumulative survival", "setting": "[2]; DHEA 750 μg/mouse i.p. at time 0, saline 10% rabbit serum, 48 hrs, 1st exp.", "value": 40, "unit": "%"},
      {"measurement": "% cumulative survival", "setting": "[2]; DHEA 750 μg/mouse i.p. at time 0, saline 10% rabbit serum, 48 hrs, 2nd exp.", "value": 50, "unit": "%"},
      {"measurement": "% cumulative survival", "setting": "[2]; DHEA 750 μg/mouse i.p. at time 0, saline 10% rabbit serum, 72 hrs, 1st exp.", "value": 40, "unit": "%"},
      {"measurement": "% cumulative survival", "setting": "[2]; DHEA 750 μg/mouse i.p. at time 0, saline 10% rabbit serum, 72 hrs, 2nd exp.", "value": 50, "unit": "%"},
      {"measurement": "% cumulative survival", "setting": "[2]; DHEA 750 μg/mouse i.p. at time 0, saline 10% rabbit serum, 96 hrs, 1st exp.", "value": 40, "unit": "%"},
      {"measurement": "% cumulative survival", "setting": "[2]; DHEA 750 μg/mouse i.p. at time 0, saline 10% rabbit serum, 96 hrs, 2nd exp.", "value": 50, "unit": "%"},
      {"measurement": "% cumulative survival", "setting": "[2]; DHEA 1000 μg/mouse i.p. 1 hour before LPS + D-Gal, saline 10% rabbit serum, 24 hrs, 2nd exp", "value": 20, "unit": "%"},
      {"measurement": "% cumulative survival", "setting": "[2]; DHEA 1000 μg/mouse i.p. 1 hour before LPS + D-Gal, saline 10% rabbit serum, 48 hrs, 2nd exp", "value": 20, "unit": "%"},
      {"measurement": "% cumulative survival", "setting": "[2]; DHEA 1000 μg/mouse i.p. 1 hour before LPS + D-Gal, saline 10% rabbit serum, 72 hrs, 2nd exp", "value": 10, "unit": "%"},
      {"measurement": "% cumulative survival", "setting": "[2]; DHEA 1000 μg/mouse i.p. 1 hour before LPS + D-Gal, saline 10% rabbit serum, 96 hrs, 2nd exp", "value": 0, "unit": "%"},
      {"measurement": "% cumulative survival", "setting": "[2]; DHEA 1000 μg/mouse i.p. at time 0, saline 10% rabbit serum, 24 hrs, 1st exp.", "value": "80^a %"},
      {"measurement": "% cumulative survival", "setting": "[2]; DHEA 1000 μg/mouse i.p. at time 0, saline 10% rabbit serum, 48 hrs, 1st exp.", "value": 60, "unit": "%"},
      {"measurement": "% cumulative survival", "setting": "[2]; DHEA 1000 μg/mouse i.p. at time 0, saline 10% rabbit serum, 72 hrs, 1st exp.", "value": 60, "unit": "%"},
      {"measurement": "% cumulative survival", "setting": "[2]; DHEA 1000 μg/mouse i.p. at time 0, saline 10% rabbit serum, 96 hrs, 1st exp.", "value": 60, "unit": "%"},
      {"measurement": "% cumulative survival", "setting": "[2]; DHEA 1500 μg/mouse i.p. 1 hour before LPS + D-Gal, saline 10% rabbit serum, 24 hrs, 2nd exp", "value": "70^a %"}
    ]}
  ]
}
